Holding throughout (format): cell-based
In data set [1] the test system is H1299 cells. Kind of data set: Concomitant TTFields and inhibitor: cell count, colony formation, annexin V/7AAD apoptosis, H1299. The settings on record: TTFields 0.97 V/cm RMS, 150 kHz, 72 h. On the procedure: In these experiments 15,000 of H1299 cells/dish were seeded in inovitro dishes and incubated overnight to allow cell attachment. The cells were then treated with TTFields (0.97 V/cm RMS, 150 KHz, 72 h), alone or with the addition of different concentrations of nedisertib. Efficacy was measured by analyzing cell count by flow cytometer (Guava easy Cyte HT), colony formation, and apoptosis induction by annexin V/7AAD staining. The overall effect was calculated by multiplying cell count with colony formation.
In these experiments 15,000 of H1299 cells/dish were seeded in inovitro dishes and incubated overnight to allow cell attachment. […] Efficacy was measured by analyzing cell count by flow cytometer (Guava easy Cyte HT), colony formation, and apoptosis induction by annexin V/7AAD staining. The overall effect was calculated by multiplying cell count with colony formation.

For data set [2], the system named is A549 cells. Kind of data set: Cell cycle distribution by flow cytometer, A549. The settings on record: for change in the sub G1 phase / cell cycle distribution, concomitant treatment with TTFields: 150 kHz; for cell cycle distribution, concomitant treatment with TTFields: different times. On the procedure:
The mechanism of action of the concomitant treatment was investigated and cell cycle analysis was performed. In these experiments 15,000 of A549 cells/dish were seeded in inovitro dishes and incubated overnight to allow cell attachment. The cells were then treated with TTFields (0.97 V/cm RMS. 150 kHz) for different times, alone or with the addition of 6 μM of nedisertib (FIG. 14). Cell cycle distribution was performed for each treatment alone and for the concomitant treatments using the Cytek® Northern Lights™ flow cytometer.
In these experiments, 15,000 of A549 cells/dish were seeded in inovitro dishes and incubated overnight to allow cell attachment. […] Cell cycle distribution was performed for each treatment alone and for the concomitant treatments using the Cytek® Northern Lights™ flow cytometer.

Data set [3] relates to H1299 cells. As to the kind of experiment: Cell cycle distribution by flow cytometer, H1299. The following applies: 150 kHz, different times. How it is done:
Similar results to the A549 cells were obtained in the H1299 cell line, where the concomitant treatment results in G1 arrest (FIG. 15). In these experiments 15,000 of H1299 cells/dish were seeded in inovitro dishes and incubated overnight to allow cell attachment. The cells were then treated with TTFields (0.97 V/cm RMS. 150 kHz) for different times, alone or with the addition of 6.25 μM of nedisertib. Cell cycle distribution was performed for each treatment alone and for the concomitant treatments using the Cytek® Northern Lights™ flow cytometer.
Similar results were obtained in the H1299 cell line, where the concomitant treatment results in G1 arrest (FIG. 20). In these experiments 15,000 of H1299 cells/dish were seeded in inovitro dishes and incubated overnight to allow cell attachment. […] Cell cycle distribution was performed for each treatment alone and for the concomitant treatments using the Cytek® Northern Lights™ flow cytometer.

The test system of data set [4] is H1299 cells. As to the kind of experiment: Inhibitor titration, cell count by flow cytometer, H1299. The settings on record: 72 hr, no TTFields. On the procedure:
(§1) This work was began with the titration of nedisertib. For these experiments 15,000 of A549 or H1299 cells/dish were seeded in 12-well plate and incubated overnight to allow cell attachment. The cells were then treated with various concentrations of nedisertib for 72 hr. The remaining cells were counted by flow cytometer (Guava easyCyte HT) (FIG. 11). […] For these experiments 15,000 of A549 or H1299 cells/dish were seeded in 12-well plates and incubated overnight to allow cell attachment. […] The remaining cells were counted by flow cytometer (Guava easy Cyte HT).

The test system of data set [5] is A549 cells. Kind of data set: Concomitant TTFields and inhibitor: cell count, colony formation, annexin V/7AAD apoptosis, A549. The settings on record: for interaction of co-application of TTFields and inhibitor: summary statement. How it is done: In these experiments 15,000 of A549 cells/dish were seeded in inovitro dishes and incubated overnight to allow cell attachment. The cells were then treated with TTFields (0.97V/cm RMS, 150 kHz, 72 h), alone or with the addition of different concentrations of nedisertib, Efficacy was measured by analyzing cell count by flow cytometer (Guava easy Cyte HT), colony formation, and apoptosis induction by annexin V/7AAD staining. The overall effect was calculated by multiplying cell count with colony formation.
In these experiments 15,000 of A549 cells/dish were seeded in inovitro dishes and incubated overnight to allow cell attachment. […] Efficacy was measured by analyzing cell count by flow cytometer (Guava easy Cyte HT), colony formation, and apoptosis induction by annexin V/7AAD staining. The overall effect was calculated by multiplying cell count with colony formation.

In data set [6] the test system is A549 cells. Kind of data set: Inhibitor titration, cell count by flow cytometer, A549. The following applies: 72 hr, no TTFields. How it is done:
as §1

Data set [7] relates to CX18 edge 2, CX18 core 1, OX5 edge and OX5 core primary glioblastoma cells. As to the kind of experiment: Clonogenic survival assay with TTFields, VX984 and radiation in 3D Alvetex culture. The following applies: VX984 250 nM, 1 hr pre-treatment, TTFields 200 kHz, 72 hr, radiation, n=3. On the procedure:
Clonogenic survival assays of cells pre-treated with VX984 (250 nM, 1 hr) before TTFields incubation (200 kHz, 72 hr) in CX18 edge 2, CX18 core 1, OX5 edge and OX5 core cells. n=3, statistical significance denoted through ANOVA one-way analysis. Representative images of cell death post TTFields treatment in CX18 edge 2), CX18 core 2, OX5 edge and OX5 core cells.
FIG. 6 is a table with a summary of the survival data of TTFields alongside VX984 and radiation. The average intratumoural survival fractions (INTRA); OX5 core vs edge and CX18 core vs edge and the average intertumoural survival fraction; OX5 INTRA vs CX18 INTRA are shown. Bliss indices are calculated to ascertain if cell death is synergistic or addictive using the survival fraction product of DMSO+TTF and Combo−TTF as a ratio against Combo+TTF. Ratios<1.1 are seen as additive cell death whereas>1.1 is synergistic.

In a further data set the target is T1, DNA-PK (Homo sapiens, UniProt P78527).
T1 construct: primary glioma stem-like cells (GSCs) treated with DNA-PKi or IR alone or in combination; endogenous in cells; host or cells: CX18 core 1 / edge 2 and OX5 core / edge primary glioma stem-like cells
As to the kind of experiment: Western blot of DNA-PK autophosphorylation (pS2056) after radiation in primary glioma stem-like cells. The following applies: VX984 250 nM, radiation 5 Gy, CX18 edge 2, CX18 core 1, OX5 edge and OX5 core.

[8] abbreviates: 0.11 μM CC-115, TTFields 0.97 V/cm RMS.
Where [9] appears, read: TTFields 0.97 V/cm RMS, 150 kHz, 72 h, different concentrations.
Setting [10] is: 6 μM nedisertib, TTFields 0.97 V/cm RMS.

Results on three compounds are retold here after US20250032788A1, “COMPOSITIONS AND METHODS FOR TREATING WITH A COMBINATION OF ALTERNATING ELECTRIC FIELDS AND DNA-DEPENDENT PROTEIN KINASE INHIBITORS” (NOVOCURE GMBH, priority 2023, published 2025).

“Also recorded” adds a separate entry of the source.

On to `CCN1C(=O)CNc2ncc(-c3ccc(-c4nc[nH]n4)nc3C)nc21` [CC-115], for which the “overall effect (cell count multiplied by colony formation) of inhibitor with TTFields” value with H1299 cells [1] (different concentrations) is recorded as “additive overall effect; also recorded: enhance”; with A549 cells [5] (setting [9]), “synergistically enhanced; also recorded: enhance”. Further, the “change in the sub G1 phase” value in the data set on A549 cells [2] (setting [8]) is listed as “don't see a significant change”. Further, the “cell cycle distribution, concomitant treatment with TTFields” value is “induced G1 arrest and a decreased number of s-phase cells; also recorded: promotes cell cycle arrest” in the data set on A549 cells [2] (setting [8]); “G1 arrest; also recorded: promotes cell cycle arrest” with H1299 cells [3] (0.3125 μM CC-115, TTFields 0.97 V/cm RMS). Besides, the “IC50 (remaining cells counted)” value with H1299 cells [4] is listed as “much lower than that of nedisertib; also recorded: higher than that of A549”; with A549 cells [6] it was “much lower than that of nedisertib”. Besides, the “levels of apoptosis at the concentration used for cell cycle analysis” value in the data set with A549 cells [5] (0.11 μM CC-115) is “low levels of apoptosis”. In addition, the “interaction of co-application of TTFields and inhibitor” value in the data set on A549 cells [5] is given as “synergistic interaction”.
On to `COc1ccc([C@@H](O)c2cc(-c3ncnc4cc(N5CCOCC5)ccc34)c(F)cc2Cl)nn1` [Nedisertib], for which the “apoptotic effect of the concomitant treatment (annexin V/7AAD)” value in the data set on H1299 cells [1] is listed as “only significant in the higher doses”; in the data set with A549 cells [5] (TTFields 0.97 V/cm RMS, 150 kHz, 72 h), “only significant in the higher doses”. The “interaction of concomitant treatment of TTFields and inhibitor” value is listed as “additive interaction” in the data set with H1299 cells [1] and “additive effect” in the data set on H1299 cells [1] (listed as nedisertib). Further, the “cytotoxic effect (cell count) of inhibitor with TTFields” value is on record as “enhance” in the data set with H1299 cells [1] (different concentrations) and “synergistically enhanced; also recorded: enhance” in the data set with A549 cells [5] (setting [9]). The “overall effect (cell count multiplied by colony formation) of inhibitor with TTFields” value is given as “enhance” in the data set on H1299 cells [1] (different concentrations) and “synergistically enhanced; also recorded: enhance” in the data set on A549 cells [5] (setting [9]). Moreover, in the data set on A549 cells [2] (setting [10]), the “change in the sub G1 phase” value is listed as “don't see a significant change”. In addition, the “cell cycle distribution, concomitant treatment with TTFields” value is “highest level of arrest; also recorded: promotes cell cycle arrest” with A549 cells [2] (setting [10]) and “G1 arrest; also recorded: promotes cell cycle arrest” in the data set on H1299 cells [3] (6.25 μM nedisertib, TTFields 0.97 V/cm RMS). The “cell cycle distribution, inhibitor alone” value with A549 cells [2] (6 μM nedisertib, at most time points) is “induce G1 arrest and a decreased number of s-phase cells”. In the data set on H1299 cells [4], the “IC50 (remaining cells counted)” value is “higher than that of A549”. Besides, the “levels of apoptosis at the concentration used for cell cycle analysis” value in the data set on A549 cells [5] (6 μM nedisertib) is recorded as “low levels of apoptosis”. The “interaction of co-application of TTFields and inhibitor” value in the data set with A549 cells [5] is recorded as “synergistic interaction”.
Turning to VX984, in data set [7], the “glioblastoma cell death (clonogenic survival)” value is reported as “enhances glioblastoma cell death by radiosensitisation”. Further, at DNA-PK, the “pDNAPK (pS2056) signal in response to radiation” value is “depletion of pDNAPK (pS2056) signal”.
